Measurements taken from patent US5324648A, “Substituted isocoumarins as serine protease inhibitors and anti-inflammatory agents” (Georgia Tech Research Corporation, priority 1992, dated 1994).
Each block holds one molecule with its values, some of them ahead of it.

How the values were obtained:
[1] = biological target: T1, human thrombin (Homo sapiens, UniProt P00734); assay: Inactivation rate of human thrombin; assay type: biochemical; conditions: Table VIII; pH 7.5, 25° C; [I] 1.2-54 μM; read-out: kobs/[I]
T1 construct: human thrombin
Procedure, shortened: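 Incubation method: enzyme (0.01-2.3 μM) mixed with inhibitor in 0.1M Hepes, 0.01M CaCl2, pH 7.5, 8% Me2SO, 25° C; residual activity sampled over time with peptide thioester or 4-nitroanilide substrates. kobs from ln(vt/vo) vs time plots.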

[2] = Activated partial thromboplastin time (APTT), rabbit plasma
[3] = biological target: T2, human skin chymase (Homo sapiens, UniProt P23946); assay: Inactivation rate of human skin chymase; assay type: biochemical; conditions: Table V; pH 7.5, 25° C; [I] 0.41 to 0.53 mM; read-out: kobs/[I]
T2 construct: human skin chymase; from tissue; host or cells: human skin
Method: (§1) Inactivation rates of serine proteases by substituted isocoumarins were measured by the incubation method. An aliquot of inhibitor (25 or 50 μl) in Me2 SO was added to a buffered enzyme solution (0.01-2.3 μM) to initiate the inactivation. Aliquots (50 μl) were withdrawn at various intervals and the residual enzymatic activity was measured. Me2 SO concentration in the reaction mixture was 8-12% (v/v). 0.1 Hepes, 0.01M CaCl2, pH 7.5 buffer was utilized for trypsin and coagulation enzymes. 0.1M Hepes, 0.5M NaCl, pH 7.5 was utilized for other serine proteases. The inhibitor concentrations are shown in all the tables. Peptide thioesters or peptide nitroanilides with appropriate sequence were used as substrates for various serine proteases. All peptide thioester hydrolysis rates were measured with assay mixtures containing 4,4'-dithiodipyridine (ε324 =19800M^-1 cm^-1; Grasetti & Murray, Arch. Biochem. Biophys. 119, pp 41-49 (1967)). Peptide 4-nitroanilide nitroanilide hydrolysis was measured at 410 nm (ε410 =8800M^-1 cm^-1; Erlanger et al., Arch. Biochem. Biophys. 95, pp 271-278 (1961)). First order inactivation rate constant (kobs) were obtained from plots of ln (vt /vo) vs time, and the correlation coefficients were greater than 0.98.
(§2) ^a Inactivation rates were measured at 0.1M Hepes, 0.5M NaCl, pH 7.5,
(§3) 8-12% Me2 SO and 25° C. by incubation method. An aliquot of […]

[4] = biological target: T3, human lung chymase (Homo sapiens, UniProt P23946); assay: Inactivation rate of human lung chymase; assay type: biochemical; conditions: Table V; pH 7.5, 25° C; [I] 0.38 mM; read-out: kobs/[I]
T3 construct: human lung chymase; from tissue; host or cells: human lung
Method: as §1, §2, §3

[5] = test system: pig plasma; assay: Activated partial thromboplastin time (APTT), pig plasma; conditions: [I] 16 μM
[6] = test system: pig plasma; assay: Prothrombin time (PT), pig plasma

T2 sequence (P23946 22-247): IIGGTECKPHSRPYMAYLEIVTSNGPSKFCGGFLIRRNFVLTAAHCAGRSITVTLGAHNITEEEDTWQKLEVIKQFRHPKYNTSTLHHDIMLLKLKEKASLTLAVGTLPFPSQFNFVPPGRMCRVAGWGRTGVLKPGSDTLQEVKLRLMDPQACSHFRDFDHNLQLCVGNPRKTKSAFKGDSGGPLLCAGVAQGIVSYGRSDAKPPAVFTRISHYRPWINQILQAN
T3 sequence (P23946 22-247): as above

kinact/KI [1]: 760 M⁻¹ s⁻¹
Compound: N=C(N)SCCCOc1oc(=O)c2cc(N)ccc2c1Cl [7-amino-4-chloro-3-(3-isothiureidopropoxy)isocoumarin]
APTT ([2]; [I] 33 μM): 68.6 s

Compound: CCOc1oc(=O)c2cc(NC(=N)N)ccc2c1Cl [7-guanidino-3-ethoxy-4-chloroisocoumarin, 7-guanidino-4-chloro-3-ethoxyisocoumarin]
APTT ([2]; [I] 31 μM): 60.5 s | kinact/KI [3]: 33 M⁻¹ s⁻¹ | kinact/KI [4]: 540 M⁻¹ s⁻¹

Compound: N=C(N)Nc1ccc2c(Cl)c(OCCc3ccccc3)oc(=O)c2c1 [7-guanidino-4-chloro-3-(2-phenylethoxy)isocoumarin]
kinact/KI [3]: 22 M⁻¹ s⁻¹

kinact/KI [1]: 22400 M⁻¹ s⁻¹
Compound: N=C(N)SCCOc1oc(=O)c2cc(NC(=O)Nc3ccccc3)ccc2c1Cl [PhNHCONH-CiTEtOIC, 7-(phenylcarbamoylamino)-4-chloro-3-(2-isothiureidoethoxy)isocoumarin]
APTT [5]: > 120 s | PT ([6]; [I] 16 μM): 28.5 s | PT ([6]; [I] 32 μM): 58.3 s
